Source: patent publication US20100330685A1, “DIAMINORHODAMINE DERIVATIVE” (SEKISUI MEDICAL CO., LTD., priority 2000, published 2010)
Where a name gives a salt, the structure may show the parent alone.

Assays:
[1] = tested on: Bovine aorta endothelial cells; test: Imaging of nitric oxide in cells; assay type: cell-based
Experimental: Bovine aorta endothelial cells were cultured on an imaging dish. The culture broth was changed to DMEM medium (supplemented with 0.2% DMSO) containing DAR-4M AM (10 μM) prepared in Example 5, and incubated at 37° C. for 30 minutes to load DAR-4M AM on the cells. The cells were washed, and the culture broth was changed again to DMEM medium not containing DAR-4M AM. After incubation at 37° C. for 1 hour, imaging was performed. The cells were examined with a fluorescence microscope equipped with an excitation filter (520 to 550 nm), a dichromic mirror (565 nm), and a barrier filter (580 nm, long pass). The measurement was performed in a warm box kept at 37° C. Imaging interval was set to be 10 seconds, and images captured by a cooled charge-coupled device camera were recorded and analyzed by an image analyzer. The results in the figure are shown with averaged change of relative fluorescence intensity of arbitrary seven cells based on the fluorescence intensity at the time of the start of the measurement. The fluorescence intensity was increased by stimulation with bradykinin (FIG. 3(A)), but the fluorescence intensity was not increased in the presence of a nitric oxide synthetase inhibitor (1 mM L-NAME) (FIG. 3(B)).

In the case of `CNc1ccc(-c2c3ccc(N(C)C)cc3[o+]c3cc(N(C)C)ccc23)c(C(=O)[O-])c1N` [DAR-4M, 3,6-bis(dimethylamino)-9-[3-amino-4-(N-methylamino)-2-carboxyphenyl]xanthylium intramolecular salt], the “reaction with nitric oxide in the cells” value ([1]; DAR-4M produced in the cells from DAR-4M AM) is reported as “specifically reacted with nitric oxide”.

For `CNc1ccc(-c2c3ccc(N(C)C)cc3[o+]c3cc(N(C)C)ccc23)c(C(=O)OCOC(C)=O)c1N.[I-]` [DAR-4M AM, 3,6-bis(dimethylamino)-9-[2-acetoxymethoxycarbonyl-3-amino-4-(N-methylamino)phenyl]xanthylium iodide], the melting point was 177 to 178 °C, the “uptake into the cells” value ([1]; 10 μM in DMEM medium, 37° C., 30 minutes) was “taken into the cells” and the “fluorescence intensity in the presence of a nitric oxide synthetase inhibitor” value ([1]; 1 mM L-NAME, cells loaded with 10 μM) was “not increased”. For the same compound, the “fluorescence intensity on stimulation with bradykinin” value ([1]; cells loaded with 10 μM, 37° C., 30 minutes, average of seven cells) was “increased”.

`CCN(CC)c1ccc2c(-c3ccc(NC)c(N)c3C(=O)OCOC(C)=O)c3ccc(N(CC)CC)cc3[o+]c2c1.[I-]` [DAR-M AM, 3,6-bis(diethylamino)-9-[2-acetoxymethoxycarbonyl-3-amino-4-(N-methylamino)phenyl]xanthylium iodide] showed a melting point of 147 to 150 °C.
